Data on 10 sequences can be found in patent publication US20070134261A1, “Effectors of innate immunity” (priority 2001, published 2007).

The test system of data set [1] is human bronchial epithelial cells (HBE). The experiment in a line: LDH release assay (Cytotoxicity Detection Kit). The format is cell-based. To be noted: 24 hours; for LDH Release (OD490 nm): 100 μg/ml, no peptide control 1.0 ± 0.05. On the procedure: (§1) The potential toxicity of the peptides was measured in two ways. First, the Cytotoxicity Detection Kit (Roche) (Lactate dehydrogenase-LDH) Assay was used. It is a colorimetric assay for the quantification of cell death and cell lysis, based on the measurement of LDH activity released from the cytosol of damaged cells into the supernatant. LDH is a stable cytoplasmic enzyme present in all cells and it is released into the cell culture supernatant upon damage of the plasma membrane. An increase in the amount of dead or plasma membrane-damaged cells results in an increase of the LDH enzyme activity in the culture supernatant as measured with an ELISA plate reader, OD490 nm (the amount of color formed in the assay is proportional to the number of lysed cells). In this assay, human bronchial epithelial cells (I6HBEo14, HBE) cells were incubated with 100 μg of peptide for 24 hours, the supernatant removed and tested for LDH. The other assay used to measure toxicity of the cationic peptides was the WST-1 assay (Roche). This assay is a colorimetric assay for the quantification of cell proliferation and cell viability, based on the cleavage of the tetrazolium salt WST-1 by mitochondrial dehydrogenases in viable cells (a non-radioactive alternative to the [^3H]-thymidine incorporation assay). In this assay, HBE cells were incubated with 100 μg of peptide for 24 hours, and then 10 μl/well Cell Proliferation Reagent WST-1 was added. The cells are incubated with the reagent and the plate is then measured with an ELISA plate reader, OD490 nm.
Background: LDH leaks from cells whose membrane has failed.

Data set [2] is classed as cell-based.
The test system of data set [3] is HBE cells. The experiment in a line: WST-1 assay (cell viability). The format is cell-based, human. On the procedure:
as §1

Read-outs that look alike come from different tables or passages of the source. No end group written: not given here.

As to KKQMMKRVDVRGISVKRKR [SEQ ID NO: 34], the “LDH Release (OD490 nm)” value in data set [1] was found to be 1.02 ± 0.03 OD490 nm. Moreover, in data set [2] (24 h), the “MIC, C. rhod.” value was 64 µg/mL; the “MIC, E. coli” value is 8 µg/mL; the “MIC, EHEC” value turned out to be 8 µg/mL; the “MIC, S. typhim.” value turned out to be 32 µg/mL. Moreover, the “OD490 nm (WST-1 cell viability)” value in data set [3] is 0.96 ± 0.05 OD490 nm.
RAPYWPWAWARPRK [SEQ ID NO: 21]: the “LDH Release (OD490 nm)” value in data set [1] is on record as 1.06 ± 0.04 OD490 nm. Further, in data set [2] (24 h), the “MIC, C. rhod.” value was 32 µg/mL; the “MIC, E. coli” value was found to be 64 µg/mL; the “MIC, EHEC” value was 32 µg/mL; the “MIC, P. aerug.” value was 96 µg/mL. In addition, in data set [2] (24 h), the “MIC, S. aureus” value was 64 µg/mL and the “MIC, S. typhim.” value is 64 µg/mL. For the same sequence, the “OD490 nm (WST-1 cell viability)” value in data set [3] is recorded as 1.28 ± 0.07 OD490 nm.
Turning to “KWKSYAHTIMSPVRLIFHTALKPISS [SEQ ID NO: 48]”, the “LDH Release (OD490 nm)” value in data set [1] is on record as 0.95 ± 0.05 OD490 nm. Moreover, in data set [2] (Citobacter rhodensis, overnight, 96-well plate), the “MIC, C. rhod.” value came to 1 µg/mL. For the same sequence, the “MIC, EHEC” value in data set [2] (Enterohaemorrhagic E. coli, overnight, 96-well plate) was 2 µg/mL. The “MIC, E. coli” value in data set [2] (Escherichia coli, overnight, 96-well plate) was 16 µg/mL. The “MIC, P. aerug.” value in data set [2] (Pseudomonas aeruginosa, overnight, 96-well plate) is 128 µg/mL. The “MIC, S. typhim.” value in data set [2] (Salmonella enteritidis ssp. typhimurium, overnight, 96-well plate) amounted to 16 µg/mL. Moreover, in data set [3], the “OD490 nm (WST-1 cell viability)” value worked out at 0.93 ± 0.08 OD490 nm.
With “KNKAFAKMLMKALKKVTTAAKPLTG [SEQ ID NO: 44]”, the “LDH Release (OD490 nm)” value in data set [1] worked out at 0.97 ± 0.03 OD490 nm. In data set [2] (24 h), the “MIC, C. rhod.” value stood at 64 µg/mL; the “MIC, E. coli” value amounted to 8 µg/mL; the “MIC, EHEC” value was determined as 64 µg/mL; the “MIC, P. aerug.” value was determined as 128 µg/mL. For the same sequence, the “MIC, S. typhim.” value in data set [2] (24 h) was found to be 128 µg/mL. Further, the “OD490 nm (WST-1 cell viability)” value in data set [3] is 1.49 ± 0.39 OD490 nm.
As to RRRWKWAWPRRK [SEQ ID NO: 24], in data set [1], the “LDH Release (OD490 nm)” value came to 1.05 ± 0.01 OD490 nm. Besides, in data set [2] (24 h), the “MIC, C. rhod.” value worked out at 16 µg/mL; the “MIC, E. coli” value came out at 16 µg/mL; the “MIC, EHEC” value was 4 µg/mL; the “MIC, P. aerug.” value came to 4 µg/mL. In addition, in data set [2] (24 h), the “MIC, S. aureus” value came out at 16 µg/mL and the “MIC, S. typhim.” value was found to be 16 µg/mL. Also, the “OD490 nm (WST-1 cell viability)” value in data set [3] was 1.27 ± 0.16 OD490 nm.
Consider KESIKVIIRGMMVRMKK [SEQ ID NO: 35], for which the “LDH Release (OD490 nm)” value in data set [1] came out at 0.88 ± 0.03 OD490 nm. In data set [2] (24 h), the “MIC, C. rhod.” value was found to be 8 µg/mL; the “MIC, E. coli” value was 4 µg/mL; the “MIC, EHEC” value came out at 4 µg/mL; the “MIC, P. aerug.” value is 64 µg/mL. Also, in data set [2] (24 h), the “MIC, S. aureus” value turned out to be 128 µg/mL and the “MIC, S. typhim.” value was 8 µg/mL. The “OD490 nm (WST-1 cell viability)” value in data set [3] came to 1.00 ± 0.08 OD490 nm.
Consider KKDAIKKVDIRGMDMRRAR [SEQ ID NO: 28], for which the “LDH Release (OD490 nm)” value in data set [1] stood at 0.96 ± 0.06 OD490 nm. In data set [2] (24 h), the “MIC, C. rhod.” value was determined as 64 µg/mL; the “MIC, EHEC” value came to 128 µg/mL; the “MIC, S. typhim.” value was determined as 64 µg/mL. In data set [3], the “OD490 nm (WST-1 cell viability)” value is reported as 1.69 ± 0.03 OD490 nm.
Turning to “KTKKFAKMLMMALKKVVSTAKPLAILS [SEQ ID NO: 42]”, in data set [1], the “LDH Release (OD490 nm)” value came out at 3.4 ± 0.2 OD490 nm. Moreover, the “toxicity / membrane damage” value in data set [1] (as measured by both assays (LDH, WST-1), HBE cells) was “did induce membrane damage”. In data set [2] (24 h), the “MIC, C. rhod.” value was found to be 2 µg/mL; the “MIC, E. coli” value came to 1.5 µg/mL; the “MIC, EHEC” value stood at 1 µg/mL; the “MIC, P. aerug.” value turned out to be 4 µg/mL. Moreover, in data set [2] (24 h), the “MIC, S. aureus” value came out at 64 µg/mL and the “MIC, S. typhim.” value is 2 µg/mL. Also, the “OD490 nm (WST-1 cell viability)” value in data set [3] is reported as 0.39 ± 0.08 OD490 nm.
Consider RREAIRRVAMRGRDMKRMRR [SEQ ID NO: 31], for which, in data set [1], the “LDH Release (OD490 nm)” value was 0.98 ± 0.03 OD490 nm. Further, in data set [2] (24 h), the “MIC, EHEC” value was found to be 64 µg/mL and the “MIC, P. aerug.” value was determined as 128 µg/mL. For the same sequence, the “OD490 nm (WST-1 cell viability)” value in data set [3] was found to be 1.84 ± 0.06 OD490 nm.
For the sequence LSRIAPAIPWAKL [SEQ ID NO: 10], the “LDH Release (OD490 nm)” value in data set [1] is on record as 1.04 ± 0.04 OD490 nm. For the same sequence, the “MIC, EHEC” value in data set [2] (24 h) came out at 64 µg/mL. In addition, the “OD490 nm (WST-1 cell viability)” value in data set [3] is given as 1.22 ± 0.05 OD490 nm.
